Experimental data published in patent EP0285267A2, “Pyridine derivatives for treatment and prevention of liver damage, and their preparation” (YAMANOUCHI PHARMACEUTICAL CO. LTD., priority 1987, dated 1988).

Legend:
[1] = test system: serum GPT elevation due to carbon tetrachloride liver damage; test: Carbon tetrachloride induced liver damage in rats, inhibition of serum GPT elevation; type: in vivo, Male Sprague Dawley rats; conditions: given twice (1 hour before and 3 hours after carbon tetrachloride 1 ml/kg orally), blood 24 hours after, route not given
Description: The experimental liver damage was induced with carbon tetrachloride as the challenging agent. Carbon tetrachloride caused liver damage resembling that of alcohol-induced liver injury.
Male Sprague Dawley rats weighing around 160 grams were used. Carbon tetrachloride was dissolved in olive oil to obtain 20% solution, which was administed in doses of 5ml/kg orally (carbon tetrachloride: 1 ml/ kg). The test compounds were suspended in Cremophor buffer for intraperitoneal administration, and in 0.5% methyl cellulose solution for oral administration; and the test solutions were administered in doses of 5ml/kg respectively. The administration of the test compound was conducted twice, namely, 1 hour before and 3 hours after the administration of carbon tetrachloride. 24 hours after the administration of carbon tetrachloride, blood was collected via the great abdominal vein, and the level of serum GPT was measured. […] Thus, the compounds of this invention are usuful for agents for treatment and prevention of liver damage.
Other compounds, of formula I-B, were also found to have activity inhibiting the elevation of GPT due to carbon tetrachloride administration.

[2] = test system: increase in GPT level, galactosamine-induced liver damage; test: D-galactosamine challenge in rats (test compound in 0.5 % methyl cellulose), inhibition of increase in serum GPT; type: in vivo, SD male rats; conditions: 30 mg/kg oral in 0.5 % methyl cellulose, twice (1 hour before and 3 hours after D-galactosamine 425mg/kg i.p.), blood 24 hours after
Description: Experimental liver damage was induced with D-galactosamine as the challenging agent. Liver damage caused by D-galactosamine resembled that of acute hepatitis. The galactosamine hepatitis model is described in known prior art.
Animals used: SD male rats (7 week age, about 220 g body weight)
Administration method of the challenge compound: • D-galactosamine was dissolved in a physiological sodium chloride aqueous solution, and this solution was administered intraperitoneally to give galactosamine-induced liver damage. (Administered dose: 425mg/4mllkg) Administration method of the test compound: The test compound was suspended in 0.5 % methyl cellulose solution, and administered in doses of 30 mg/5 mi/kg, orally. The test compound was administered twice (1 hour before the D-galactosamine administration and 3 hours after its administration). 24 hours after the D-galactosamine administration, blood was obtained from the pentobarbital-anesthetized rats,and the level of serum-GPT was determined.

[3] = Absorbability / bioavailability (statement); type: in vivo; conditions: qualitative statement; oral suspension in 0.5 % methyl cellulose
[4] = Solubility in water (statement); type: physicochemical; conditions: qualitative statement

Compound	Inhibiting effect (%) (30mg/kg administration) [1]	Inhibition rate (%) (30mg/kg, oral administration) [2]	further results
COC(=O)c1c(C)nc(C)c(C(=O)OC)c1-c1ccc2c(c1OC)OCO2 [Example 2, dimethyl 4-(2-methoxy-3,4-methylenedioxy)phenyl-2,6-dimethylpyridine-3,5-dicarboxylate]	81.1%	–	–
COC(=O)C1=C(C)NC(C)=C(C(=O)OC)C1c1ccc2c(c1C(=O)OC)OCO2 [Example 7, dimethyl 4-(2-methoxycarbonyl-3,4-meth-lenedioxy)phenyl-2,6-dimethyl-1,4-dihydropyridine-3,5-dicarboxylate]	74.9%	70.7%	–
COC(=O)c1c(-c2c(C(=O)OC)c(C)nc(C)c2C(=O)OC)cc(OC)c2c1OCO2 [Example 14]	–	67.8%	–
COC(=O)C1=C(C)NC(C)=C(C(=O)OC)C1c1cc2c(cc1Br)OCO2 [Example 22, Dimethyl 4-(3,4-methylenedioxy-6-bromo)phenyl-2,6-dimethyl-1,4-dihydropyridine-3,5-dicarboxylate]	82.3%	–	–
COC(=O)c1c(C)nc(C)c(C(=O)OC)c1-c1c([N+](=O)[O-])ccc2c1OCO2 [Example 36, Dimethyl 4-(2,3-methylenedioxy-6-nitro)phenyl-2,6-dimethylpyridine-3,5-dicarboxylate]	89.7%	–	–
COC(=O)C1=C(C)NC(C)=C(C(=O)OC)C1c1ccccc1C(=O)OC [Example C, dimethyl 4-(2-methoxycarbonyl)phenyl-2,6-dimethyl-1,4-dihydropyridine-3,5-dicarboxylate]	91.6%	–	–
COC(=O)C1=C(C)NC(C)=C(C(=O)OC)C1c1cccc2c1OCO2 [Example P, dimethyl 4-(2,3-methylenedioxy)phenyl-2,6-dimethyl-1,4-dihydropyridine-3,5-dicarboxylate]	85.4%	–	–
COC(=O)c1c(C)nc(C)c(C(=O)OC)c1-c1cccc2c1OCO2 [Example U, dimethyl 4-(2,3-methylenedioxy)phenyl-2,6-dimethylpyridine-3,5-dicarboxylate]	76.0%	–	–
CCOc1c(N)c2c(c(OCC)c1OCC)C(C1c3c(cc4c(c3OC)OCO4)CCN1C)OC2=O (stereo not shown) [Tritoqualine]	–	0%	bioavailability (absorbability) [3]: low bioavailability; solubility in water [4]: difficultly soluble in water
dimethyl 4-(3,4-methylenedioxy)phenyl-2,6-dimethyl-1,4-dihydropyridine-3,5-dicarboxylate [Example A]	68.6%	–	–
